Measurements from patent US20090060984A1, “ANIONIC SURFACTANTS LETHAL TO GRAM-POSITIVE BACTERIA” (priority 2007, published 2009).
Like-named read-outs stand apart in the source and are kept apart here.

System: E. coli
Type: cell-based, Escherichia coli
Settings: 24 h contact time
Protocol: Escherichia coli ATCC 11229 (Culti-loops, Remel Europe, Dartford, Kent, UK) and Pseudomonas aeruginosa ATCC 15442 (Cuti-loops, Remel Europe, Dartford, Kent, UK) were selected as model Gram-negative organisms for the challenge testing of the antimicrobial coatings. Each bacterial strain was streaked for isolated colonies on Tryptic Soy Agar (TSA) plates (Difco, Becton Dickinson, Sparks, Md., U.S.A.) and incubated at 37° C. for 12 to 18 hours. Broth cultures were prepared by first picking 1-2 isolated colonies from TSA plates and inoculating 5 mL Tryptic Soy Broth (TSB; Difco, Becton Dickinson, Sparks, Md., U.S.A.) in a 16 mm test tube. This culture was grown in a shaking water bath at 150 RPM for 8 hours at 37° C. After the eight hours, 125 μL of this culture was added to 50 mL of TSB in a side-arm Klett flask and grown for approximately 8 hours in shaking water bath (150 RPM) at 37° C. The bacterial broths were grown to an A590 of 1.2-1.5, which correlated to approximately 10^9 CFU (colony forming units)/mL. 25 mL of this broth were transferred to a sterile 30 mL Oakridge tube and centrifuged at 12,000×g for 10 minutes at 4° C. (Sorval SS34 rotor) to pelletize the bacteria. The bacterial pellet was washed once and resuspended in 25 mL of phosphate buffer solution (PBS; BBL, FTA Hemaglutination Buffer, Becton Dickinson, Sparks, Md., U.S.A.). The suspension was diluted with PBS to achieve the target range of 10^5-10^6 CFU/mL and used to inoculate the slides containing antibacterial coatings.
Xylene/methanol (5:1 by weight) is used to dissolve the silver surfactants to facilitate homogeneously mixing with the alkyd resin composition.
A minus sign (−) denotes no growth, a plus sign (+) denotes confluent growth, and a capital P (P) denotes […].
Xylene/methanol (5:1 by weight) is used to dissolve the silver surfactants to facilitate homogeneously mixing with the acrylic resin composition.
The same laboratory experimental solvent based acrylic paint described in Example 34 is used to challenge E. coli by adding various levels of the invention silver anionic surfactants as described in Example 34.
A commercially available 2K epoxy resin paint is obtained from a local paint store (Sherwin Williams High Solids Epoxy Tile Clad HS; Part A B62WC11; Part B B60VZ75, The Sherwin Williams Company) and the same silver anionic surfactants described in Example 35 are used to prepare test coatings on microscope slides containing various levels of silver ion. These surfactants are dissolved in xylene/methanol (5:1 by weight) to facilitate their quantitative addition to the coating mixture.

Question: How did the “E. coli growth on coating” value (alkyd resin paint, 0.0012 weight % Ag in coating) turn out when `CCCCC(CC)COC(=O)CC(C(=O)OCC(CC)CCCC)S(=O)(=O)[O-].[Ag+]` (stereo not drawn) [AgAOT] was run?
Answer: Its value is “+”.

Question: What about the “E. coli growth on coating” value (alkyd resin paint, 0.003 weight % Ag in coating) of the same compound?
Answer: The value was “+”.

Question: And the “E. coli growth on coating” value (alkyd resin paint, 0.012 weight % Ag in coating)?
Answer: Its value is “−”.

Question: What about the “E. coli growth on coating” value (alkyd resin paint, 0.03 weight % Ag in coating) of the same compound?
Answer: Its value is “−”.

Question: What about the “E. coli growth on coating” value (alkyd resin paint, 0.06 weight % Ag in coating) of the same compound?
Answer: Its value is “−”.

Question: What about the “E. coli growth on coating” value (alkyd resin paint, 0.12 weight % Ag in coating) of the same compound?
Answer: Its value is “−”.

Question: And the “Silver level effective at preventing any growth” value (alkyd resin paint)?
Answer: The value was 0.012 % w/w.

Question: And the “Silver level partially effective” value (alkyd resin paint)?
Answer: The value was 0.006 % w/w.

Question: What about the “E. coli growth on coating” value (commercial 2K epoxy paint, 0.0012 weight % Ag in coating) of the same compound?
Answer: Its value is “+”.

Question: And the “E. coli growth on coating” value (commercial 2K epoxy paint, 0.003 weight % Ag in coating)?
Answer: Its value is “+”.

Question: And the “E. coli growth on coating” value (commercial 2K epoxy paint, 0.006 weight % Ag in coating)?
Answer: Its value is “+”.

Question: And the “E. coli growth on coating” value (commercial 2K epoxy paint, 0.012 weight % Ag in coating)?
Answer: Its value is “+”.

Question: And the “E. coli growth on coating” value (commercial 2K epoxy paint, 0.03 weight % Ag in coating)?
Answer: The value was “+”.

Question: And the “E. coli growth on coating” value (commercial 2K epoxy paint, 0.06 weight % Ag in coating)?
Answer: The value was “−”.

Question: And the “E. coli growth on coating” value (commercial 2K epoxy paint, 0.12 weight % Ag in coating)?
Answer: Its value is “−”.

Question: What about the “Silver level giving complete inhibition of growth” value (commercial 2K epoxy paint) of the same compound?
Answer: Its value is 0.06 % w/w.

Question: What about the “E. coli growth on coating” value (commercial solvent borne acrylate paint, 0.0012 weight % Ag in coating) of the same compound?
Answer: The value was “+”.

Question: And the “E. coli growth on coating” value (commercial solvent borne acrylate paint, 0.003 weight % Ag in coating)?
Answer: The value was “+”.

Question: And the “E. coli growth on coating” value (commercial solvent borne acrylate paint, 0.006 weight % Ag in coating)?
Answer: Its value is “+”.

Question: And the “E. coli growth on coating” value (commercial solvent borne acrylate paint, 0.012 weight % Ag in coating)?
Answer: The value was “+”.

Question: And the “E. coli growth on coating” value (commercial solvent borne acrylate paint, 0.06 weight % Ag in coating)?
Answer: The value was “−”.

Question: And the “E. coli growth on coating” value (commercial solvent borne acrylate paint, 0.12 weight % Ag in coating)?
Answer: The value was “−”.

Question: And the “Silver level partially effective” value (commercial solvent borne acrylic paint)?
Answer: The value was 0.03 % Ag w/w.

Question: What about the “E. coli growth on coating” value (laboratory solvent borne acrylate paint, 0.0012 weight % Ag in coating) of the same compound?
Answer: Its value is “+”.

Question: What about the “E. coli growth on coating” value (laboratory solvent borne acrylate paint, 0.003 weight % Ag in coating) of the same compound?
Answer: Its value is “+”.

Question: What about the “E. coli growth on coating” value (laboratory solvent borne acrylate paint, 0.006 weight % Ag in coating) of the same compound?
Answer: The value was “+”.

Question: What about the “E. coli growth on coating” value (laboratory solvent borne acrylate paint, 0.012 weight % Ag in coating) of the same compound?
Answer: Its value is “+”.

Question: And the “E. coli growth on coating” value (laboratory solvent borne acrylate paint, 0.03 weight % Ag in coating)?
Answer: The value was “+”.

Question: And the “E. coli growth on coating” value (laboratory solvent borne acrylate paint, 0.06 weight % Ag in coating)?
Answer: The value was “−”.

Question: What about the “E. coli growth on coating” value (laboratory solvent borne acrylate paint, 0.12 weight % Ag in coating) of the same compound?
Answer: The value was “−”.
